Where a SMILES comes first, the peptide text is derived from it. [ ]: non-standard residue; d: D form. Nle = CCCC[C@H](N)C(=O)O
Target: T1, hMCR-1 (Homo sapiens, UniProt Q01726)
T1 construct: endogenous in cells; host or cells: HBL human melanoma cell line
Experiment: Assay for agonist activity: cAMP accumulation in HBL human melanoma cells
Format: cell-based
Conditions: for Emax: compared to reference agonist NDP-α-MSH, read-out: MC-1 Emax (average; cAMP HBL); for EC50: read-out: MC-1 EC50 (average; cAMP HBL)
From the text: Accumulation of intracellular cAMP was examined as a measure of the ability of the peptides of the present invention to elicit a functional response in a human melanoma cell line, HBL, that express hMCR-1 (see Kang, L., et al., “A selective small molecule agonist of melanocortin-1 receptor inhibits lipopolysaccharide-induced cytokine accumulation and leukocyte infiltration in mice,” J. Leuk. Biol. 80:897-904 (2006)) or HEK-293 cells that express hMCR-4. Confluent HBL cells that express hMCR-1 or HEK-293 cells that express recombinant hMCR-4 were detached from culture plates by incubation in enzyme-free cell dissociation buffer. Dispersed cells were suspended in Earle's Balanced Salt Solution containing 10 mM HEPES (pH 7.5), 1 mM MgCl2, 1 mM glutamine, 0.5% albumin and 0.3 mM 3-isobutyl-1-methyl-xanthine (IBMX), a phosphodiesterase inhibitor. The cells were plated in 96-well plates at a density of 0.4×10^5 cells per well for HBL cells and 0.5×10^5 cells per well for HEK-293 cells and pre-incubated for 10 minutes. Cells were exposed for 15 minutes at 37° C. to peptides of the present invention dissolved in DMSO (final DMSO concentration of 1%) at a concentration range of 0.05-5000 nM in a total assay volume of 200 μL. NDP-α-MSH was used as the reference agonist. cAMP levels were determined by an HTRF® cAMP cell-based assay system from Cisbio Bioassays utilizing cryptate-labeled anti-cAMP and d2-labeled cAMP, with plates read on a Perkin-Elmer Victor plate reader at […]. Data analysis was performed by nonlinear regression analysis with Graph-Pad PRISM® software. Maximum efficacy (Emax) values were determined for each test peptide of the present invention, compared to that achieved by the reference melanocortin agonist NDP-α-MSH.
Peptides of the following structures were synthesized and purified as described in Section 5 above, with the resulting peptide having the structure depicted. After synthesis and purification, the foregoing peptide was tested as described in Section 8 above, and average MCR-1 and MCR-4 Ki values determined as indicated. All Ki values were determined using [I^125]-NDP-α-MSH. All results are expressed in nM except for Emax values, which are percentage values.

T1 sequence (Q01726 whole entry): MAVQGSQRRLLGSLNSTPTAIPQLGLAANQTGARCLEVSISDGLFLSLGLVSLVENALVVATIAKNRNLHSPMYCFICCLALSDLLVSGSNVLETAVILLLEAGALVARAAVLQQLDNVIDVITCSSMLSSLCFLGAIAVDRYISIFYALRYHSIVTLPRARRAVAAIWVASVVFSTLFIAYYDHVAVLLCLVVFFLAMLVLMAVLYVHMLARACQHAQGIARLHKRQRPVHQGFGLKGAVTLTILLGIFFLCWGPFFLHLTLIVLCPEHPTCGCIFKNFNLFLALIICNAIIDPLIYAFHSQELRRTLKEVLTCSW

Row | Emax [%] | EC50 [nM] | SMILES
1 | 96 |  | CCCC[C@H](NC(C)=O)C(=O)N[C@@H](C)C(=O)N[C@@H](Cc1c[nH]cn1)C(=O)N[C@H](Cc1ccccc1)C(=O)N[C@@H](CCCNC(=N)N)C(=O)N[C@@H](C)C(=O)N[C@@H](Cc1c[nH]c2ccccc12)C(N)=O [Example 9.1, Ac-Nle-Ala-His-D-Phe-Arg-Ala-Trp-NH2] (Ac-[Nle]AH[dF]RAW-NH2)
2 | 78 |  | CCCC[C@H](NC(C)=O)C(=O)N[C@@H](C)C(=O)N[C@@H](Cc1c[nH]cn1)C(=O)N[C@H](Cc1ccccc1)C(=O)N[C@@H](CCCNC(=N)N)C(=O)N1CCC[C@H]1C(=O)N[C@@H](Cc1c[nH]c2ccccc12)C(N)=O [Example 9.2, Ac-Nle-Ala-His-D-Phe-Arg-Pro-Trp-NH2] (Ac-[Nle]AH[dF]RPW-NH2)
3 | 95 | 1 | CCCC[C@H](NC(C)=O)C(=O)N[C@@H](Cc1c[nH]cn1)C(=O)N[C@H](Cc1ccccc1)C(=O)N[C@@H](CCCNC(=N)N)C(=O)N[C@@H](C)C(=O)N[C@@H](Cc1c[nH]c2ccccc12)C(N)=O [Example 9.3, Ac-Nle-His-D-Phe-Arg-Ala-Trp-NH2] (Ac-[Nle]H[dF]RAW-NH2)
4 | 90 |  | CCCC[C@H](NC(C)=O)C(=O)N[C@@H](C)C(=O)N[C@@H](Cc1c[nH]cn1)C(=O)N[C@H](Cc1ccccc1)C(=O)N[C@@H](CCCNC(=N)N)C(=O)NCC(=O)N[C@@H](Cc1c[nH]c2ccccc12)C(N)=O [Example 9.5, Ac-Nle-Ala-His-D-Phe-Arg-Gly-Trp-NH2] (Ac-[Nle]AH[dF]RGW-NH2)
5 | 72 | 4 | CCCC[C@H](NC(C)=O)C(=O)N[C@@H](C)C(=O)N[C@@H](Cc1c[nH]cn1)C(=O)N[C@@H](Cc1ccccc1)C(=O)N[C@@H](CCCNC(=N)N)C(=O)N[C@@H](C)C(=O)N[C@@H](Cc1c[nH]c2ccccc12)C(N)=O [Example 9.6, Ac-Nle-Ala-His-Phe-Arg-Ala-Trp-NH2] (Ac-[Nle]AHFRAW-NH2)
6 | 75 |  | CCCC[C@H](NC(C)=O)C(=O)N[C@@H](C)C(=O)N[C@@H](Cc1c[nH]cn1)C(=O)N[C@@H](Cc1ccccc1)C(=O)N[C@@H](CCCNC(=N)N)C(=O)NCC(=O)N[C@@H](Cc1c[nH]c2ccccc12)C(N)=O [Example 9.7, Ac-Nle-Ala-His-Phe-Arg-Gly-Trp-NH2] (Ac-[Nle]AHFRGW-NH2)
7 | 55 |  | CCCC[C@H](NC(C)=O)C(=O)N[C@@H](Cc1c[nH]cn1)C(=O)N[C@@H](Cc1ccccc1)C(=O)N[C@@H](CCCNC(=N)N)C(=O)N[C@@H](C)C(=O)N[C@@H](Cc1c[nH]c2ccccc12)C(N)=O [Example 9.8, Ac-Nle-His-Phe-Arg-Ala-Trp-NH2] (Ac-[Nle]HFRAW-NH2)
8 | 85 |  | CCCC[C@H](NC(C)=O)C(=O)N[C@@H](C)C(=O)N[C@H](Cc1ccccc1)C(=O)N[C@@H](CCCNC(=N)N)C(=O)N[C@@H](C)C(=O)N[C@@H](Cc1c[nH]c2ccccc12)C(N)=O [Example 9.10, Ac-Nle-Ala-D-Phe-Arg-Ala-Trp-NH2] (Ac-[Nle]A[dF]RAW-NH2)
9 | 99 | 4 | CCCC[C@H](NC(C)=O)C(=O)N[C@@H](C)C(=O)N[C@@H](Cc1c[nH]cn1)C(=O)N[C@H](Cc1ccccc1)C(=O)N[C@@H](C)C(=O)N[C@@H](C)C(=O)N[C@@H](Cc1c[nH]c2ccccc12)C(N)=O [Example 9.16, Ac-Nle-Ala-His-D-Phe-Ala-Ala-Trp-NH2] (Ac-[Nle]AH[dF]AAW-NH2)
10 | 94 |  | CCCC[C@H](NC(C)=O)C(=O)N[C@@H](C)C(=O)N[C@@H](C)C(=O)N[C@H](Cc1ccccc1)C(=O)N[C@@H](CCCNC(=N)N)C(=O)N[C@@H](C)C(=O)N[C@@H](Cc1c[nH]c2ccccc12)C(N)=O [Example 9.17, Ac-Nle-Ala-Ala-D-Phe-Arg-Ala-Trp-NH2] (Ac-[Nle]AA[dF]RAW-NH2)
11 | 106 |  | CCCC[C@H](NC(C)=O)C(=O)N[C@@H](C)C(=O)N[C@@H](CCCNC(=N)N)C(=O)N[C@H](Cc1ccccc1)C(=O)N[C@@H](CCCNC(=N)N)C(=O)N[C@@H](C)C(=O)N[C@@H](Cc1c[nH]c2ccccc12)C(N)=O [Example 9.18, Ac-Nle-Ala-Arg-D-Phe-Arg-Ala-Trp-NH2] (Ac-[Nle]AR[dF]RAW-NH2)

Source: patent US10106578B2, “Melanocortin-1 receptor-specific linear peptides” (Palatin Technologies, Inc., priority 2012, dated 2018)
